Results taken from US11273217B2, “Cancer treatment composition combining anti-CD26 antibody and other anticancer agent” (Y's AC Co., Ltd., priority 2015, dated 2022).

Columns and labels:
[1] = system: MESO1 cells; assay: MTT cell growth assay, MESO1; format: cell-based; settings: day 2
Method: MESO1 or H2452 cells (2×10^3 cells/well) were inoculated to a 96-well plate. One hour later, cisplatin or pemetrexed was added thereto at 10^−9, 10^−8, 10^−7, 10^−6, 10^−5, or 10^−4 M (n=6). At day 2, MTT assay was conducted.
MESO1 cells (2×10^3 cells/well) were inoculated to a 96-well plate. One hour later, the combination of 0.3, 3, or 10 μM cisplatin and 0.1, 3, or 10 μg/ml YS110, or the combination of 0.03, 0.3, or 1 μM pemetrexed and 0.1, 3, or 10 μg/ml YS110 was added thereto. At day 2, MTT assay was conducted. Significant difference was tested by two-tailed t-test (vs Cont).
MESO1 cells (2×10^3 cells/well) or H2452 cells (2×10^3 cells/well) were inoculated to a 96-well plate. One hour later, 0.3 μM cisplatin-0.1 μM pemetrexed combination, or YS110 (10 μg/ml) plus the 0.3 μM cisplatin-0.1 μM pemetrexed combination was added thereto (n=6). At day 2, MTT assay was conducted. Significant difference was tested by two-tailed t-test (vs Cont).
(§1) Gemcitabine was studied for its effect on the growth of a mesothelioma cell line. A mesothelioma cell line MESO1, JMN, H2452, or H226 (2×10^3 cells/well) was inoculated to a 96-well plate. One hour later, gemcitabine (10^−9, 10^−8, 10^−7, 10^−6, 10^−5, or 10^−4 M) was added thereto (N=6). 2 days later, MTT assay was conducted. Significant difference was tested by two-tailed t-test (vs Cont).
MESO1 cells (2×10^3 cells/well) were inoculated to a 96-well plate. One hour later, gemcitabine (0, 10^−8, 3×10^−8, or 10^−7 M) and YS110 (0, 1, 3, or 10 μg/ml) were added thereto in combination. At day 2, MTT assay was conducted. Significant difference was tested by two-tailed t-test (vs Cont). Next, interaction in concomitant use of medications was studied (n=6). The interaction between YS110 and gemcitabine used concomitantly was analyzed by two-way ANOVA.
(§2) MESO1, JMN, H2452 or H226 cells (2×10^3 cells/well were inoculated to a 96-well plate. One hour later, 3×10^−8 M or 10^−7 M gemcitabine was added thereto by concomitant use with the combination of cisplatin (0, 0.1, 0.3, or 1 μM) and pemetrexed (0, 0.03, 0.1, or 0.3 μM) (n=6). At day 2, MTT assay was conducted.
The growth inhibitory effects of cisplatin (10^−9 to 10^−4 M) and pemetrexed (10^−9 to 10^−4 M) were compared using the MESO1 and JMN cell lines.
(§3) The growth inhibitory effect of gemcitabine (10^−9 to 10^−4 M) was compared using MESO1, H2452, JMN, and H226 cell lines.

[2] = system: H226 cells; assay: MTT cell growth assay, H226; format: cell-based; settings: gemcitabine 10^−8, 3×10^−8, or 10^−7 M and YS110 1, 3, or 10 μg/ml; day 2
Method: as §1
H226 cells (2×10^3 cells/well) were inoculated to a 96-well plate. One hour later, gemcitabine (0, 10^−8, 3×10^−8, or 10^−7 M) and YS110 (0, 1, 3, or 10 μg/ml) were added thereto in combination. At day 2, MTT assay was conducted. Significant difference was tested by two-tailed t-test (vs Cont). Next, interaction in concomitant use of medications was studied (n=6). The interaction between YS110 and gemcitabine used concomitantly was analyzed by two-way ANOVA.
as §2, §3

[3] = system: H2452 cells; assay: In vivo H2452 cell growth in SCID mice (tumor weight); settings: YS110 10 mg/kg, cisplatin 0.5 mg/kg, pemetrexed 50 mg/kg, intraperitoneal, days 1 and 4; tumor weight day 7
Method: H2452 cells (3×10^5 cells/animal) were subcutaneously transplanted to the backs of female SCID mice. The day of transplantation was defined as day 0. YS110 (10 mg/kg) alone, cisplatin (0.5 mg/kg)-pemetrexed (50 mg/kg) used concomitantly, or YS110 (10 mg/kg) used concomitantly with the cisplatin-pemetrexed concomitant use was intraperitoneally administered to the mice twice (days 1 and 4). At day 7, their tumors were excised, and the tumor weights were measured. Significant difference was tested by two-tailed t-test (vs Cont).

[4] = system: H226; assay: In vivo growth of epithelioid mesothelioma cell H226 in SCID mice (tumor weight); settings: YS110 10 mg/kg, gemcitabine 20 mg/kg, intraperitoneal, days 2 and 4; day 7
Method: H226 (3.8×10^5 cells/animal) was subcutaneously transplanted to the backs of female SCID mice. The day of transplantation was defined as day 0. YS110 (10 mg/kg), gemcitabine (20 mg/kg), or YS110 (10 mg/kg)+gemcitabine (20 mg/kg) was intraperitoneally administered to the mice twice (days 2 and 4) (n=6). At day 7, their tumors were excised, and the tumor weights were measured. Significant difference was tested by two-tailed t-test (vs Cont). The interaction between YS110 and gemcitabine used concomitantly was analyzed by two-way ANOVA.

[5] = system: HCC827 cells; assay: In vivo growth of CD26-positive lung cancer cell line HCC827 in SCID mice (tumor weight); settings: days 1 and 4, day 7
Method: HCC827 cells (1.8×10^5 cells/animal) were subcutaneously transplanted to the backs of female SCID mice. The day of transplantation was defined as day 0. At day 1, YS110 (10 mg/kg) alone, cisplatin (0.5 mg/kg)+pemetrexed (50 mg/kg), or YS110 (10 mg/kg)+cisplatin (0.5 mg/kg)+pemetrexed (50 mg/kg) was intraperitoneally administered to the mice. At day 4, the same amount of the same drug was administered by the same method as in day 1 (n=6). At day 7, their tumors were excised, and the tumor weights were measured. Significant difference was tested by two-tailed t-test (vs Cont).
HCC827 cells (0.9×10^5 cells/animal) were subcutaneously transplanted to the backs of female SCID mice. The day of transplantation was defined as day 0. YS110 (10 mg/kg, intraperitoneal administration), gefitinib (100 mg/kg, oral administration), or YS110 (10 mg/kg, intraperitoneal administration)+gefitinib (100 mg/kg, oral administration) was administered to the mice twice (days 1 and 4). At day 7, their tumors were excised, and the tumor weights were measured. Significant difference was tested by two-tailed t-test (vs Cont).

[6] = system: CD26-positive malignant mesothelioma cell line JMN; settings: mouse, in vivo
Method: NOD/SCID (NOD/LtSz-scid) mice were maintained in a microisolator cage within a specific pathogen-free (SPF) facility and allowed to freely take sterilized diet and sterilized water.
1×10^7 cultured JMN cells were subcutaneously administered to 6- to 8-week-old female NOD/SCID mice. […] The same amount of PBS was administered to the control group. When a tumor became evidently visible, the tumor was excised, and its size was measured with a vernier caliper. The estimated tumor volume was determined by calculation according to the expression: π/6×L×W×W (Tomayko M M et al., Cancer Chemother Pharmacol. (1989) 24: 148-54). The statistical difference among the average tumor volumes of these groups were determined by Fisher's protected least-square differences (PLSD) multiple comparison test. Statistical analysis was conducted using SPSS software (IBM, Armonk, N.Y.).

## YS110: humanized anti-CD26 antibody designed based on anti-CD26 mouse antibody 14D10; SEQ ID NO: 17 and 18
[1]; 0.03, 0.3, or 1 μM pemetrexed and 0.1, 3, or 10 μg/ml YS110
  effect of YS110 on the cell growth inhibitory effect of pemetrexed: potentiated
[1]; 0.3, 3, or 10 μM cisplatin and 0.1, 3, or 10 μg/ml YS110
  effect of YS110 on the cell growth inhibitory effect of cisplatin: potentiated
[1]; YS110 10 μg/ml plus 0.3 μM cisplatin-0.1 μM pemetrexed
  effect of YS110 on the cell growth inhibitory effect of cisplatin-pemetrexed: potentiated
[1]; gemcitabine 10^−8, 3×10^−8, or 10^−7 M and YS110 1, 3, or 10 μg/ml
  effect of YS110 on the growth inhibitory effect of gemcitabine: potentiated
[2]
  effect of YS110 on the growth inhibitory effect of gemcitabine: potentiated
[3]
  effect of YS110 on the in vivo tumor growth inhibitory effect of cisplatin-pemetrexed: potentiated
[4]
  inhibitory effect (tumor weight): 34%
[5]; YS110 10 mg/kg intraperitoneal, gefitinib 100 mg/kg oral
  effect of YS110 on the effect of gefitinib (tumor weight): potentiated
[5]; YS110 10 mg/kg, cisplatin 0.5 mg/kg, pemetrexed 50 mg/kg, intraperitoneal
  effect of YS110 on the effect of cisplatin-pemetrexed (tumor weight): potentiated
[6]
  average body weight of the mice compared among the groups: did not remarkably differ
